Molecules are shown by their SMILES. pIC50: −log10 of the molar value. Structures can show the parent of a compound that is named as a salt. Where two headings read alike, the source gives them in different places.

The values below come from patent publication US6310086A, “Indole derivatives and medicinal compositions containing the same” (Kissei Pharmaceutical Co., Ltd., priority 1998, dated 2001).

In one data set the target is T1, α1-adrenoceptor (Rattus norvegicus, UniProt P43140).
T1 construct: Ductus deferenses (about 1.5 cm from testis side) were isolated; from tissue; host or cells: isolated ductus deferens (about 1.5 cm from testis side) of male Wistar rats, organ bath
T1 sequence (P43140 1-466): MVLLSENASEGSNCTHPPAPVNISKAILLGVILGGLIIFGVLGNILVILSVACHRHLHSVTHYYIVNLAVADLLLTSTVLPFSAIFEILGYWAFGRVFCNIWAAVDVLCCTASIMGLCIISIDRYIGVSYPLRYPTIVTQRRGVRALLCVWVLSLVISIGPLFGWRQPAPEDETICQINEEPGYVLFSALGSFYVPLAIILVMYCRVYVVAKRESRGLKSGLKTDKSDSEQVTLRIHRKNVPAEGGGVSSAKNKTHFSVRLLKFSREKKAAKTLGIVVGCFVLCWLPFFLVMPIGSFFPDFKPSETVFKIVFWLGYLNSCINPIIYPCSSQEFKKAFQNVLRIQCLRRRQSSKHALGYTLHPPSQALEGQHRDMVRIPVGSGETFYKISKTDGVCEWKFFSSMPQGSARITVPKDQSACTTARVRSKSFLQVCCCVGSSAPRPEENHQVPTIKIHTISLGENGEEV
The data set is described as follows: Test for Measuring α1-adrenoceptor Blocking Effect (inhibition of norepinephrine contraction of isolated ductus deferens). Format: cell-based, rat (male Wistar). To be noted: 10 μM norepinephrine, propranorol 1 μM and yohimbine 0.1 μM.

A further data set has as its system male SD rats. The data set is described as follows: Acute Toxicity Test (oral). As to conditions: 1000 mg/kg. Format: in vivo, rat (SD). The protocol: Male SD rats of 7 weeks age (n=5; 190-210 g in body weight) were fasted for 18 hours. (R)-3-[7-Carbamoyl-5-[2-[[2-(2-ethoxyphenoxy)ethyl]amino]propyl]-1H-indol- 1-yl]propyl pivalate hydrochloride which was suspended in 0.5% aqueous methylcellulose solution at a concentration of 100 mg/ml was orally administered to the rats at a dose of 1000 mg/kg.

A short description of data set [1]: Test for Measuring Drug Concentration in Aqueous Humor (2), after instillation of Compound C hydrochloride. The format is in vivo, rabbit (Japanese White). As to conditions: rabbit eye.
For a further data set, the system named is Endogenous Enzyme. The data set is described as follows: Test for Rate of Hydrolysis by Endogenous Enzyme in whole blood. Format: in vitro ADME, rat (male Wistar). To be noted: blood, 2 hours. The protocol: (§1) (1 μg), and the mixture was incubated at 37° C. After 15 minutes, 30 minutes, 1 hour and 2 hours, 0.7M aqueous sodium fluoride solution (0.5 ml) as an esterase inhibitor was added to each sample to stop the reaction.
(§2) Analytical column: Inertsil ODS-3 (4.6×250 mm)
(§3) Mobile phase: acetonitrile/20 mM acetate buffer (pH 5.0)=40/60 Column temperature: 50° C.
(§4) Fluorometry: excitation wavelength 270 nm, emission wavelength 435 nm

Test in data set [2]: as above
To be noted: for metabolised at 0.25 h: read-out: Decomposition rate, 15 minutes after; for metabolised at 1 h: read-out: Decomposition rate, 1 hour after; for metabolised at 2 h: read-out: Decomposition rate, 2 hours after. The format is in vitro ADME, rat (male Wistar). The protocol: as §1, §2, §3, §4

Data set [3] can be described thus: Stability Test in aqueous solution. The format is physicochemical. To be noted: pH 5, decomposed into Compound A. Here is the method: The test compounds were dissolved in 0. 1M acetate buffer (pH 5.0) to prepare 0.1% solutions. Each 0.1% solution was allowed to stand in the dark for 28 days at 40° C., 50° C., 60° C. and 70° C., respectively.
[4] abbreviates: rat whole blood, 37° C., 1 μg in 0.5 ml.
The mark [5] stands for this setting: rat whole blood, 37° C., 1 μg in 0.5 ml, read-out: Decomposition rate, 30 minutes after.

Method for α1-adrenoceptor: Ductus deferenses (about 1.5 cm from testis side) were isolated frommaleWistar rats (about 300 to 350 g in body weight). […] A solution of a mixture containing propranorol and yohimbine (final concentration: propranorol 1 μM and yohimbine 0.1 μM) was added into the Magnus bath. After 30 minutes, norepinephrine at the final concentration of 10 μM was added into the Magnus bath until the maximum contraction was obtained, and each preparation was washed. This procedure was repeated several times until the heights of contraction were stable. Each preparation was pre-treated with a solution containing the test compound before 30 minutes, and the contractile responses by treatment of 10 μM norepinephrine were measured. Contraction of each preparation without pre-treatment of the test compound was expressed as 100%.

The pIC50 is the IC50 on a negative log10 scale, so that one unit is a factor of ten. In the case of `CCCC(=O)N1CCCN(c2nc(N)c3cc(OC)c(OC)cc3n2)CC1` [Bunazosin hydrochloride], the pIC50 on α1-adrenoceptor was 6.50.

On to `CCOc1ccccc1OCCN[C@H](C)Cc1cc(C(N)=O)c2c(ccn2CCCOC(=O)C(C)(C)C)c1.Cl` [Compound C hydrochloride, (R)-3-[7-Carbamoyl-5-[2-[[2-(2-ethoxyphenoxy)ethyl]amino]-propyl]-1H-indol-1-yl]propyl Pivalate Hydrochloride], for which the “fatal rats during 24 hours after administration” value in the data set on male SD rats was “Any fatal rats were not observed”.

`CCOc1ccccc1OCCN[C@H](C)Cc1cc(C(N)=O)c2c(ccn2CCCOC(=O)C(C)(C)C)c1` [Compound C, (R)-3-[7-Carbamoyl-5-[2-[[2-(2-ethoxyphenoxy)ethyl]amino]-propyl]-1H-indol-1-yl]propyl Pivalate]: in data set [1] (even after 20 minutes), the “detection of the ester in aqueous humor” value is “could not be detected in aqueous humor at all even after 20 minutes”.

As to `CCOc1ccccc1OCCN[C@H](C)Cc1cc(C(N)=O)c2c(ccn2CCCOC(=O)C(C)(C)C)c1` [Compound C], the concentration at 20 min in data set [1] (aqueous humor, topical or ocular, 50 ug/eye, 50 μl of 0.1% Compound C hydrochloride instilled, Compounds B and C determined, read-out: Drug concentrations in aqueous humor, 20 minutes after) is less than 1 ng/mL. Besides, the concentration at 2 h in data set [1] (aqueous humor, topical or ocular, 50 ug/eye, 50 μl of 0.1% Compound C hydrochloride instilled, Compounds B and C determined, read-out: Drug concentrations in aqueous humor, 2 hours after) was less than 1 ng/mL. Also, the concentration at 6 h in data set [1] (aqueous humor, topical or ocular, 50 ug/eye, 50 μl of 0.1% Compound C hydrochloride instilled, Compounds B and C determined, read-out: Drug concentrations in aqueous humor, 6 hours after) is less than 1 ng/mL.

As for `C[C@H](Cc1cc(C(N)=O)c2c(ccn2CCCOC(=O)C(C)(C)C)c1)NCCOc1ccccc1OCC(F)(F)F` [Compound D, (R)-3-[7-Carbamoyl-5-[2-[[2-[2-(2,2,2-trifluoroethoxy)-phenoxy]ethyl]amino]propyl]-1H-indol-1-yl]propyl Pivalate], the “conversion into Compound A after 2 hours” value in the data set with Endogenous Enzyme is listed as “almost Compound A after 2 hours”. Besides, the metabolised at 0.5 h in data set [2] (blood, 30 minutes) is approximately 67%. The degraded in data set [3] (40° C., about 1 month at 40° C.) was approximately 0.1%; in data set [3] (70° C., about 1 month at 70° C.), approximately 1.1%.

As for `C[C@H](Cc1cc(C(N)=O)c2c(ccn2CCCOC(=O)C(C)(C)C)c1)NCCOc1ccccc1OCC(F)(F)F` [Compound D], in data set [2] (setting [4]), the metabolised at 0.25 h stood at 54.8%, the metabolised at 1 h amounted to 86.5% and the metabolised at 2 h was found to be 98.6%. In addition, the metabolised at 0.5 h in data set [2] (setting [5]) was found to be 67.1%.

In data set [2] (blood, 30 minutes), `CCC(CC)C(=O)OCCCn1ccc2cc(C[C@@H](C)NCCOc3ccccc3OCC(F)(F)F)cc(C(N)=O)c21` [Compound a, (R)-3-[7-Carbamoyl-5-[2-[[2-[2-(2,2,2-trifluoroethoxy)-phenoxy]ethyl]amino]propyl]-1H-indol-1-yl]propyl 2-ethyl-butyrate] showed a metabolised at 0.5 h of approximately 12%.

For `CCC(CC)C(=O)OCCCn1ccc2cc(C[C@@H](C)NCCOc3ccccc3OCC(F)(F)F)cc(C(N)=O)c21` [Compound a], in data set [2] (setting [4]), the metabolised at 0.25 h was found to be 8.4%, the metabolised at 1 h was determined as 12.6% and the metabolised at 2 h was found to be 25.2%. In data set [2] (setting [5]), the metabolised at 0.5 h was determined as 12%.

As to `CCCC(C)(C)C(=O)OCCCn1ccc2cc(C[C@@H](C)NCCOc3ccccc3OCC(F)(F)F)cc(C(N)=O)c21` [Compound b, (R)-3-[7-Carbamoyl-5-[2-[[2-[2-(2,2,2-trifluoroethoxy)-phenoxy]ethyl]amino]propyl]-1H-indol-1-yl]propyl 2,2-dimethylvalerate], in data set [2] (blood, 30 minutes), the metabolised at 0.5 h is approximately 4%.

As to `CCCC(C)(C)C(=O)OCCCn1ccc2cc(C[C@@H](C)NCCOc3ccccc3OCC(F)(F)F)cc(C(N)=O)c21` [Compound b], in data set [2] (setting [4]), the metabolised at 0.25 h was 2.2%, the metabolised at 1 h turned out to be 7.5% and the metabolised at 2 h is 10.2%. Also, the metabolised at 0.5 h in data set [2] (setting [5]) worked out at 3.8%.

As to `C[C@H](Cc1cc(C(N)=O)c2c(ccn2CCCOC(=O)C(C)(C)c2ccccc2)c1)NCCOc1ccccc1OCC(F)(F)F` [Compound c, (R)-3-[7-Carbamoyl-5-[2-[[2-[2-(2,2,2-trifluoroethoxy)-phenoxy]ethyl]amino]propyl]1H-indol-1-yl]propyl α,α-dimethylphenylacetate], the metabolised at 0.5 h in data set [2] (blood, 30 minutes) was approximately 2%.

For the compound `C[C@H](Cc1cc(C(N)=O)c2c(ccn2CCCOC(=O)C(C)(C)c2ccccc2)c1)NCCOc1ccccc1OCC(F)(F)F` [Compound c], in data set [2] (setting [4]), the metabolised at 0.25 h turned out to be 0.6%, the metabolised at 1 h was found to be 3.2% and the metabolised at 2 h amounted to 3.7%. Also, the metabolised at 0.5 h in data set [2] (setting [5]) came out at 1.6%.

In the case of `CCC(C)(C)C(=O)OCCCn1ccc2cc(C[C@@H](C)NCCOc3ccccc3OCC(F)(F)F)cc(C(N)=O)c21` [Compound d, (R)-3-[7-Carbamoyl-5-[2-[[2-[2-(2,2,2-trifluoroethoxy)-phenoxy]ethyl]amino]propyl]-1H-indol-1-yl]propyl 2,2-Dimethylbutyrate], in data set [2] (blood, 30 minutes), the metabolised at 0.5 h is approximately 6%.

With `CCC(C)(C)C(=O)OCCCn1ccc2cc(C[C@@H](C)NCCOc3ccccc3OCC(F)(F)F)cc(C(N)=O)c21` [Compound d], in data set [2] (setting [4]), the metabolised at 0.25 h turned out to be 2.1%, the metabolised at 1 h turned out to be 8.4% and the metabolised at 2 h came out at 21.7%. Further, the metabolised at 0.5 h in data set [2] (setting [5]) is 5.6%.
